{"source": "paper PMC4992173", "about": "“Divergent synthesis and identification of the cellular targets of deoxyelephantopins” (Nature Communications, 2016)", "biological_target": "T1, PPARγ (Homo sapiens, UniProt P37231)", "T1 sequence (P37231 1-505)": "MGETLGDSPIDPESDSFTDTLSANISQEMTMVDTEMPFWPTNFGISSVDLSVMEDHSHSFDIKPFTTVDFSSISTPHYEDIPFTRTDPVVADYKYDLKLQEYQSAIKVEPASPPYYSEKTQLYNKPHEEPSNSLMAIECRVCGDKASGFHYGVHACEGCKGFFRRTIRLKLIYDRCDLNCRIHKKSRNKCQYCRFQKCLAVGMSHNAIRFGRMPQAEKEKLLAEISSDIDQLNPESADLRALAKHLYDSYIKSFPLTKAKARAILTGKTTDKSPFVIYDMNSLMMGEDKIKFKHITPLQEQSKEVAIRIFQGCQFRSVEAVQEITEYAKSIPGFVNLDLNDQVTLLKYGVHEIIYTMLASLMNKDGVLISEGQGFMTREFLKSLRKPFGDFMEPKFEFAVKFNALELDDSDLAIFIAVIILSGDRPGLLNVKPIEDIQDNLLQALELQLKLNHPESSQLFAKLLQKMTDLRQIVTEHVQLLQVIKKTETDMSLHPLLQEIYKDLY", "assay": "Detection of a covalent adduct on human PPARγ (LC-MS/MS)", "assay_type": "binding", "parameters": "purchased Cayman Chemical", "conditions": "100 μM, 1 h, tryptic digest LC-MS/MS", "text": "Finally, we sought to understand the molecular basis for PPARγ binding by the synthetic analogues of deoxyelephantopin through identification of the precise covalently modified amino acid site. There is literature precedent for oxidized fatty acids containing an α,β-unsaturated ketone to form a covalent bond with a cysteine in the ligand-binding site of PPARγ[53]. More recently, synthetic ligands binding reversibly to a distinct site were identified. […] Bearing in mind that the structurally simplified, and thus less prone to MS/MS fragmentation, probe 23c binds PPARγ as efficiently as 24c (Supplementary Fig. 13), we treated the recombinant nuclear receptor with the former compound, digested the protein and analysed the resulting peptides by LC–MS/MS. […]\nRecombinant human PPARγ (500 ng in 9 μl PBS) was treated with 100 μM of 23c (1 μl of 10 × stock in DMSO) or DMSO for 1 h. […] Samples were resuspended in 0.1% FA in water and analysed by LC–MS/MS. The theoretical mass of the 23c adduct was calculated and LC–MS/MS was run with an inclusion list containing m/z and charge of the expected peptides. MS data were analysed in MaxQuant with 23c (+256.1099 Da) and carbamidomethylation as variable modifications on cysteine. […]"}
{"smiles": "C#CCC[C@H](O)[C@H]1C(=C)C(=O)O[C@@H]1c1ccccc1", "note": "[23c]", "values": [{"measurement": "protein site covalently modified", "value": "Cys190"}]}
